From US12391685B2, “Inhibitors of RNA-guided nuclease target binding and uses thereof” (THE BROAD INSTITUTE, INC., priority 2018, dated 2025)
Read-outs that look alike come from different tables or passages of the source.

Columns and labels:
Type in all cases: cell-based, S. pyogenes
[1] = molecular target: T1, dCas9-based transcription-activation complex (Streptococcus pyogenes serotype M1, UniProt Q99ZW2, D10A, form not given); assay: dCas9-based transcription activation of HBG1 in HEK293FT cells (RT-qPCR); settings: for EC50: read-out: EC50, inhibition of the transcription activation complex
T1 construct: "dSpCas9|Feng Zhang lab|NA"; The MS2-p65-HSF1(-GFP) effector is a separate chain recruited through MS2 aptamers in the sgRNA
Description: Transcription activation experiments and quantitative RT-PCR analyses. HEK293FT cells were maintained in high glucose DMEM with glutamax (Life Technologies) and supplemented with 10% FBS (Life Technologies), 1% penicillin-streptomycin (Life Technologies) and 1 mM sodium pyruvate (Life Technologies). For transcription activation experiments, 20,000 cells/well were plated in a poly D-lysine-coated 96-well plate. The cells were transiently transfected with a 1:1:1 mass ratio of the dCas9 plasmid, MS2-P65-HSF1 effector plasmid and the sgRNA plasmid targeting the HBG1 gene or an RFP control plasmid. A total of 0.3 μg plasmid DNA was transfected using Lipofectamine 2000 (Life Technologies) according to manufacturer's protocol. Immediately after transfection, the cells were treated with an appropriate dose of the small-molecule inhibitors. A DMSO solution of compound (20 mM) was resuspended in the 10% FBS containing growth media and thoroughly mixedbefore adding to the cells. After 48 h the cells were lysed and 5 μL of the cell lysate was used to perform reverse transcription using the RevertAid RT Reverse Transcription Kit (Thermo Fischer Scientific) as described by Joung J. et al. qPCR reactions were performed to quantify RNA expression using the TaqMan probes (Life Technologies, HBG1/HBG2: Hs00361131_g1, ACTB: Hs01060665_g1) and TaqMan Fast Advanced Master Mix (Life Technologies) in 5 μL multiplexed reactions and 384-well format using the LightCycler 480 Instrument II (Roche). For each sample, four technical replicates were performed. Data were analyzed using the LightCycler 480 software (Roche) by the ΔΔCt method: Ct values for the gene of interest (HBG1) were normalized to Ct values for the housekeeping gene (ACTB), and fold-changes in the expression level of gene of interest were normalized to RFP-transfected control. The data is reported as mean±S.E.M. for technical replicates.

SpCas9 [2] = molecular target: T2, SpCas9 (Streptococcus pyogenes serotype M1, UniProt Q99ZW2); assay: eGFP-disruption assay in U2OS.eGFP.PEST cells; set-up: host or cells: U2OS.eGFP.PEST; settings: for inhibition at 15 µM / Average Inhibition activity / Inhibition activity Rep 1 / Inhibition activity Rep 2: screen of structural analogs of BRD7087, 15 μM compound, U2OS.eGFP.PEST cells
T2 sequence (Q99ZW2 whole entry): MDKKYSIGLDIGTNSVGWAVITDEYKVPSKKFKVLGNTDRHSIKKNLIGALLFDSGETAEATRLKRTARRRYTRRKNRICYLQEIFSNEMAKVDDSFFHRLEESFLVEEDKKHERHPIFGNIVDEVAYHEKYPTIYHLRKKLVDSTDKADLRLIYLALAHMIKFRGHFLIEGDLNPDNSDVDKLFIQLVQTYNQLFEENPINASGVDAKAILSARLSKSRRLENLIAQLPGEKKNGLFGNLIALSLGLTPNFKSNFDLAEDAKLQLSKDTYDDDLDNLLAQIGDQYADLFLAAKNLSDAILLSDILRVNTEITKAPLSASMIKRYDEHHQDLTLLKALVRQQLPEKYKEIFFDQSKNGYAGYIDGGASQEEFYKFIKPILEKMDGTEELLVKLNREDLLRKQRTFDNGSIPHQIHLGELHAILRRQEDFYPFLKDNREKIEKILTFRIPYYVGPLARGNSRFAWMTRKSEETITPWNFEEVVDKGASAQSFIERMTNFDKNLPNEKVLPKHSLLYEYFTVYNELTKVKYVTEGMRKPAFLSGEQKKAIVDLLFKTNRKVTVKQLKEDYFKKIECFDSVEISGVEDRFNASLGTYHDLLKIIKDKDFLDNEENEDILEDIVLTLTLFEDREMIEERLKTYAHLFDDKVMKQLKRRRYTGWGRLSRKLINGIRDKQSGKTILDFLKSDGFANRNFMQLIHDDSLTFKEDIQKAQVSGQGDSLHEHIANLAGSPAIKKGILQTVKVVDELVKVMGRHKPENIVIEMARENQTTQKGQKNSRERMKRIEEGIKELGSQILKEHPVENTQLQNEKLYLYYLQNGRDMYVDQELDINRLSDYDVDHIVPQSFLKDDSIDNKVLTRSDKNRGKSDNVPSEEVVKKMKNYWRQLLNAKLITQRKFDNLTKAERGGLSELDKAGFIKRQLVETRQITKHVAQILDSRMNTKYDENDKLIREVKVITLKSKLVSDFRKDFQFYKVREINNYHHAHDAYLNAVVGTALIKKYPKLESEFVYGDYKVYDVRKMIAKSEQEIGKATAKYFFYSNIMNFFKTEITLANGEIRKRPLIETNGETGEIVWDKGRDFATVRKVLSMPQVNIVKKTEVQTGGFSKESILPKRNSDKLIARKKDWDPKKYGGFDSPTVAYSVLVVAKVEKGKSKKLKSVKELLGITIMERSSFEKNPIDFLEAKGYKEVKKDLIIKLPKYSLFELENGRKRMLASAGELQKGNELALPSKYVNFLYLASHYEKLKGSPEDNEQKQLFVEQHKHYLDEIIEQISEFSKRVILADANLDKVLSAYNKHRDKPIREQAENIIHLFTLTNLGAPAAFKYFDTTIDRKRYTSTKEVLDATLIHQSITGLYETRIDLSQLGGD
Description: SpCas9 nuclease activity in eGFP-disruption assay. Approximately 200,000 U2OS.eGFP-PEST cells were nucleofected following two different methods either by nucleofecting plasmids or RNP using the SE Cell Line 4D-Nucleofector™ X Kit (Lonza) according to the manufacturer's protocol. In the plasmid nucleofection method, cells were nucleofected either with 440 ng of SpCas9 (Addgene Plasmid #43861) or 400 ng of SpCas9 along with 40 ng of sgRNA (pFYF1320 eGFP Site #1, Addgene Plasmid #47511). Cells nucleofected only with SpCas9-expressing plasmid were used as the transfection control. In the RNP nucleofection method, either […] SpCas9 or 20 pmol preformed SpCas9:gRNA (eGFP Site #1) complex were nucleofected. Approximately 20,000 transfected cells/well were plated in 4 replicates in a 96-well plate (Corning® 3904). Cells were incubated with the indicated amount of compound or DMSO for 24 h post transfection. A DMSO solution of compound (20 mM) was resuspended in the 10% FBS containing growth media and thoroughly mixed before adding to the cells. Cells were then fixed using 4% paraformaldehyde and imaged with the HCS NuclearMask™ Blue Stain (Life Technologies) as the nuclear counter-staining agent. Imaging was performed with an ImageXpress Micro automated microscope (Molecular Devices) at 10× magnification under three excitation channels (blue, green and red) acquiring nine sites per well. Images were analyzed using MetaXpress software and data were plotted using GraphPad Prism 6.
The Z′-value was calculated using the equation (1), where σ1 and σ2 are the standard deviations of DMSO control and SpCas9:gRNA control respectively. μ1 and μ2 are the mean % GFP^− cell population for DMSO control and SpCas9:gRNA control, respectively.

SpCas9 [3] = molecular target: T2, SpCas9; assay: HiBiT assay in U2OS.eGFP.PEST cells; set-up: host or cells: U2OS.eGFP.PEST; settings: 24 h
Description: HiBiT assay. For SpCas9 expression in cells, the previously described JDS246 plasmid was used (Kleinstiver et al., 2015b). ssODN donor DNA template with the HiBiT tag was purchased as single-stranded Ultramer DNA Oligonucleotides (IDT) and resuspended to 40 μM in nuclease-free water. For the assay, 2×10^5 cells were co-transfected with 300 ng Cas9 plasmid, 75 ng sgRNA plasmid and 100 ng ssODN using the DN-100 program of Lonza 4D nucleofector according to the manufacturer's protocols. For negative controls, either the sgRNA plasmid or the ssODN was omitted. 20,000 transfected cells were plated in each well of a 96-well plate (Corning 3904). Immediately after transfection, cells were treated with varying concentrations of BRD0539 or BRD3433 and incubated at 37° C. with 5% CO2. 24 h after transfection, the cells were washed once with PBS and kept in 80 μL PBS. An equal volume of the Nano-Glo HiBiT Lytic Reagent (Promega N3030), consisting of Nano-Glo HiBiT Lytic Buffer, Nano-Glo HiBiT Lytic Substrate, and LgBiT Protein, was added according to the manufacturer's protocol, and cells were incubated for 10 min at ambient temperature with shaking at 600 rpm (Schwinn et al., 2018a). The cells were then incubated for an additional 10 min without shaking at room temperature to allow equilibration of the HiBiT and LgBiT in the lysate. The lysate was then transferred to a white plate (Corning 3990) and luminescence was measured using an Envision plate reader (Perkin-Elmer) with 1 s of integration time.

[4] = 24 h, read-out: Average Inhibition activity
[5] = 24 h, read-out: Inhibition activity Rep 1
[6] = 24 h, read-out: Inhibition activity Rep 2

SMILES	Average Inhibition activity (SpCas9 [2]; 24 h)	Inhibition activity Rep 1 (SpCas9 [2]; 24 h)	Inhibition activity Rep 2 (SpCas9 [2]; 24 h)	also measured
CN1c2ccc(C#Cc3cccnc3)cc2[C@H]2[C@H](CCN2C(=O)Nc2cc(F)ccc2F)[C@@H]1CO [BRD0048, (3aS,4R,9bR)—N-(2,5-difluorophenyl)-4-(hydroxymethyl)-5-methyl-8-(pyridin-3-ylethynyl)-2,3,3a,4,5,9b-hexahydro-1H-pyrrolo[3,2-c]quinoline-1-carboxamide]				EC50 [1]: 9 µM; inhibition at 15 µM (SpCas9 [2]; [4]): 76.4%; inhibition at 15 µM (SpCas9 [2]; [5]): 84.1%; inhibition at 15 µM (SpCas9 [2]; [6]): 68.7%
COc1cccc(-c2ccc3c(c2)[C@H]2[C@H](CCN2C(=O)Cc2ccncc2)[C@H](CO)N3C)c1 [BRD3433, 1-((3aS,4R,9bR)-4-(hydroxymethyl)-8-(3-methoxyphenyl)-5-methyl-2,3,3a,4,5,9b-hexahydro-1H-pyrrolo[3,2-c]quinolin-1-yl)-2-(pyridin-4-yl) ethan-1-one]				EC50 (SpCas9 [2]; EC50, dose-dependent inhibition of SpCas9, U2OS.eGFP.PEST cells, 24 h, tested from 2.8-17.3 μM): 9.3 µM; improvement in potency over BRD7087 (SpCas9 [2]; eGFP-disruption assay): 1.8 fold; EC50 (SpCas9 [2]; eGFP-disruption assay, read-out: apparent EC50): 11 µM; inhibition at 15 µM (SpCas9 [2]; [4]): 78.6%; inhibition at 15 µM (SpCas9 [2]; [5]): 82.2%; inhibition at 15 µM (SpCas9 [2]; [6]): 74.9%; inhibition of SpCas9 in the HiBiT assay (in words) (SpCas9 [3]): dose-dependent inhibition
COc1ccc(C#Cc2ccc3c(c2)[C@H]2[C@H](CCN2C(=O)c2ccccc2F)[C@H](CO)N3C)cc1 [BRD-K56594357]	57.9	55.8	59.9	
Cc1ccccc1S(=O)(=O)N1CC[C@@H]2[C@H](CO)N(C)c3ccc(C#Cc4ccc(F)cc4)cc3[C@@H]21 [BRD-K11385710]	51.1	55.7	46.5	
COc1ccccc1CN1CC[C@@H]2[C@H]1c1cc(C#Cc3ccccc3)ccc1N[C@@H]2CO [BRD-K18260949]	49.5	49.8	49.1	
O=C(c1cccc(F)c1)N1CC[C@@H]2[C@H](CO)Nc3ccc(-c4ccccc4)cc3[C@@H]21 [BRD-K94204229]	57.0	47.5	66.6	
CN1c2ccc(C#Cc3cccnc3)cc2[C@@H]2[C@@H](CCN2S(=O)(=O)c2ccccc2F)[C@H]1CO [BRD-K39647256]	54.9	51.3	58.4	
CN(C)C(=O)c1cccc(-c2ccc3c(c2)[C@@H]2[C@@H](CCN2C(=O)c2ccc4c(c2)OCO4)[C@@H](CO)N3)c1 [BRD-K83829793]	53.1	61.0	45.2	
COc1cccc(-c2ccc3c(c2)[C@@H]2[C@@H](CCN2C(=O)c2cnccn2)[C@@H](CO)N3)c1 [BRD-K11943259]	58.8	53.0	64.6	
COCC(=O)N1CC[C@@H]2[C@H](CO)Nc3ccc(C#Cc4cccc(F)c4)cc3[C@@H]21 [BRD-K09759494]	50.9	51.1	50.7	
CCCC#Cc1ccc2c(c1)[C@@H]1[C@@H](CCN1S(=O)(=O)c1ccccc1OC)[C@@H](CO)N2 [BRD-K43330291]	59.3	68.2	50.4	
CN1c2ccc(C#Cc3cccnc3)cc2[C@@H]2[C@@H](CCN2C(=O)C2CCCCC2)[C@H]1CO [BRD20322, Cyclohexyl((3aR,4S,9bS)-4-(hydroxymethyl)-5-methyl-8-(pyridin-3-ylethynyl)-2,3,3a,4,5,9b-hexahydro-1H-pyrrolo[3,2-c]quinolin-1-yl) methanone]				inhibition of transcriptional activation ([1]; 20 μM): 89%; EC50 [1]: 12.2 µM; inhibition at 15 µM (SpCas9 [2]; [4]): 53.5%; inhibition at 15 µM (SpCas9 [2]; [5]): 47.6%; inhibition at 15 µM (SpCas9 [2]; [6]): 59.4%
CN1c2ccc(-c3ccccc3F)cc2[C@H]2[C@H](CCN2C(=O)NC2CCCCC2)[C@H]1CO [BRD-K35104316]	49.1	54.2	44.1	
COc1ccccc1NC(=O)N1CC[C@@H]2[C@H]1c1cc(C#Cc3cccc(F)c3)ccc1N(C)[C@@H]2CO [BRD-K77165899]	53.5	47.0	59.9	
O=C(C1CCCCC1)N1CC[C@@H]2[C@H]1c1cc(C#Cc3ccc(F)cc3)ccc1N[C@@H]2CO [BRD-K88933335]	45.7	47.8	43.7	
COc1ccccc1C#Cc1ccc2c(c1)[C@H]1[C@H](CCN1C(=O)CN1CCOCC1)[C@H](CO)N2 [BRD-K26627503]	56.9	47.5	66.3	
COc1cccc(S(=O)(=O)N2CC[C@@H]3[C@H]2c2cc(C#Cc4cccnc4)ccc2N(C)[C@H]3CO)c1 [BRD-K04388421]	51.2	49.1	53.3	
COc1ccc(S(=O)(=O)N2CC[C@@H]3[C@@H](CO)N(C)c4ccc(-c5ccc(F)cc5)cc4[C@@H]32)cc1 [BRD-K16827616]	60.5	76.4	44.6	
COc1ccccc1C#Cc1ccc2c(c1)[C@H]1NCC[C@H]1[C@@H](CO)N2 [BRD-K39870434]	68.1	53.7	82.5	
COc1ccccc1C#Cc1ccc2c(c1)[C@H]1[C@H](CCN1C(=O)c1cccc(F)c1)[C@H](CO)N2 [BRD-K83261893]	45.7	47.1	44.3	
